Tests used:
MC4 = target: T1, MC4 (Homo sapiens, UniProt P32245); assay: GPCR radioligand binding (RLB) assay, melanocortin MC4, [125I]NDP-αMSH
T1 construct: purchased Perkin Elmer BioSignal; host or cells: HEK 293
In short: (§1)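 Membranes from HEK 293 cells expressing the recombinant human receptor were equilibrated with [125I]SST-14 (SST5) or [125I]NDP-αMSH (MC4), then compound added for an optimized incubation. Bound ligand separated by filtration on PEI-coated glass fiber and counted by liquid scintillation.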

SST5 = target: T2, SST5 (Homo sapiens, UniProt P35346); assay: GPCR radioligand binding (RLB) assay, somatostatin SST5, [125I]SST-14; settings: for SST5 inhibition at 10 micromolar: 10 micromolar compound, recombinant human receptor membranes (HEK 293); for SSTS inhibition at 10 micromolar: Example Library 4
T2 construct: purchased Perkin Elmer BioSignal; host or cells: HEK 293
In short: as §1

[1] = 10 micromolar compound, recombinant human receptor membranes (HEK 293)
[2] = 10 micromolar, Example Library 4

T2 sequence (P35346 whole entry): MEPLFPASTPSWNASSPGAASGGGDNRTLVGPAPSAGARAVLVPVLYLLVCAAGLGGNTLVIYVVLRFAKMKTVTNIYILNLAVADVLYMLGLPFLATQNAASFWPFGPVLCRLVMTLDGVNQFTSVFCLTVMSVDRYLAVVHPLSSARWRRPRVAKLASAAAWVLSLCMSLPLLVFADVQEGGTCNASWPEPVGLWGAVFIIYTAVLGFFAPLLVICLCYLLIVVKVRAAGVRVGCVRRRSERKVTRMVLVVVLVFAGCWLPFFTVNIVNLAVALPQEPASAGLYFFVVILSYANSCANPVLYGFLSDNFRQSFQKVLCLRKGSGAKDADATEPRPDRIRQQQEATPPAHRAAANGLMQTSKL
T1 sequence (P32245 whole entry): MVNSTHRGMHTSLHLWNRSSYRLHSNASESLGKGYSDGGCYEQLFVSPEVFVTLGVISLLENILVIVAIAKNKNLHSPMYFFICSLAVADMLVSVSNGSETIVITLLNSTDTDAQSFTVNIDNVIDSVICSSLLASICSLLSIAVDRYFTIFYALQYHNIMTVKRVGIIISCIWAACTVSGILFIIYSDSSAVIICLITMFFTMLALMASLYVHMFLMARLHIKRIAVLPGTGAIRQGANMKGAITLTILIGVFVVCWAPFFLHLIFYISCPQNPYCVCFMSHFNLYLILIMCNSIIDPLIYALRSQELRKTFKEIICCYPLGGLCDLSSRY

| Structure (SMILES) | MC4 inhibition at 10 micromolar (MC4; [1]) | SST5 inhibition at 10 micromolar (SST5) | MC4 inhibition at 10 micromolar (MC4; [2]) | SSTS inhibition at 10 micromolar (SST5) |
| --- | --- | --- | --- | --- |
| CSC1OC(COCc2ccccc2)C(O)C(OCc2ccc3ccccc3c2)C1NC(=O)CCNC(=N)N (stereo not shown) [Compound 194] | + (Indicates inhibition greater than . . . 50%) | + (Indicates inhibition greater than . . . 50%) | – | – |
| CSC1OC(COCc2ccccc2)C(O)C(OCc2ccc3ccccc3c2)C1NC(=O)CCCN (stereo not shown) [Compound 195] | + (Indicates inhibition greater than . . . 50%) | + (Indicates inhibition greater than . . . 50%) | – | – |
| CSC1OC(COCc2ccccc2)C(O)C(OCc2ccc3ccccc3c2)C1NC(=O)CCCNC(=N)N (stereo not shown) [Compound 196] | + (Indicates inhibition greater than . . . 50%) | + (Indicates inhibition greater than . . . 50%) | – | – |
| CSC1OC(COCc2ccc(Cl)cc2)C(O)C(OCc2ccc3ccccc3c2)C1NC(=O)CN (stereo not shown) [Compound 197] | + (Indicates inhibition greater than . . . 50%) | + (Indicates inhibition greater than . . . 50%) | – | – |
| CSC1OC(COCc2ccc(Cl)cc2)C(O)C(OCc2ccc3ccccc3c2)C1NC(=O)CNC(=N)N (stereo not shown) [Compound 198] | + (Indicates inhibition greater than . . . 50%) | + (Indicates inhibition greater than . . . 50%) | – | – |
| CSC1OC(COCc2ccc(Cl)cc2)C(O)C(OCc2ccc3ccccc3c2)C1NC(=O)CCN (stereo not shown) [Compound 199] | + (Indicates inhibition greater than . . . 50%) | + (Indicates inhibition greater than . . . 50%) | – | – |
| CSC1OC(COCc2ccc(Cl)cc2)C(O)C(OCc2ccc3ccccc3c2)C1NC(=O)CCNC(=N)N (stereo not shown) [Compound 200] | + (Indicates inhibition greater than . . . 50%) | + (Indicates inhibition greater than . . . 50%) | – | – |
| CSC1OC(COCc2ccc(Cl)cc2)C(O)C(OCc2ccc3ccccc3c2)C1NC(=O)CCCN (stereo not shown) [Compound 201] | + (Indicates inhibition greater than . . . 50%) | + (Indicates inhibition greater than . . . 50%) | – | – |
| CSC1OC(COCc2ccc(Cl)cc2)C(O)C(OCc2ccc3ccccc3c2)C1NC(=O)CCCNC(=N)N (stereo not shown) [Compound 202] | + (Indicates inhibition greater than . . . 50%) | + (Indicates inhibition greater than . . . 50%) | – | – |
| CSC1OC(COCc2ccc(-c3ccccc3)cc2)C(O)C(OCc2ccc3ccccc3c2)C1NC(=O)CN (stereo not shown) [Compound 203] | + (Indicates inhibition greater than . . . 50%) | + (Indicates inhibition greater than . . . 50%) | – | – |
| CSC1OC(COCc2ccc(-c3ccccc3)cc2)C(O)C(OCc2ccc3ccccc3c2)C1NC(=O)CNC(=N)N (stereo not shown) [Compound 204] | + (Indicates inhibition greater than . . . 50%) | + (Indicates inhibition greater than . . . 50%) | – | – |
| CSC1OC(COCc2ccc(-c3ccccc3)cc2)C(O)C(OCc2ccc3ccccc3c2)C1NC(=O)CCN (stereo not shown) [Compound 205] | + (Indicates inhibition greater than . . . 50%) | + (Indicates inhibition greater than . . . 50%) | – | – |
| CSC1OC(COCc2ccc(-c3ccccc3)cc2)C(O)C(OCc2ccc3ccccc3c2)C1NC(=O)CCNC(=N)N (stereo not shown) [Compound 206] | + (Indicates inhibition greater than . . . 50%) | + (Indicates inhibition greater than . . . 50%) | – | – |
| CSC1OC(COCc2ccc(-c3ccccc3)cc2)C(O)C(OCc2ccc3ccccc3c2)C1NC(=O)CCCN (stereo not shown) [Compound 207] | + (Indicates inhibition greater than . . . 50%) | + (Indicates inhibition greater than . . . 50%) | – | – |
| CSC1OC(COCc2ccc(-c3ccccc3)cc2)C(O)C(OCc2ccc3ccccc3c2)C1NC(=O)CCCNC(=N)N (stereo not shown) [Compound 208] | + (Indicates inhibition greater than . . . 50%) | + (Indicates inhibition greater than . . . 50%) | – | – |
| CSC1OC(COCc2ccc3ccccc3c2)C(O)C(OCc2ccc3ccccc3c2)C1NC(=O)CN (stereo not shown) [Compound 209] | + (Indicates inhibition greater than . . . 50%) | + (Indicates inhibition greater than . . . 50%) | – | – |
| CSC1OC(COCc2ccc3ccccc3c2)C(O)C(OCc2ccc3ccccc3c2)C1NC(=O)CNC(=N)N (stereo not shown) [Compound 210] | + (Indicates inhibition greater than . . . 50%) | + (Indicates inhibition greater than . . . 50%) | – | – |
| CSC1OC(COCc2ccc3ccccc3c2)C(O)C(OCc2ccc3ccccc3c2)C1NC(=O)CCN (stereo not shown) [Compound 211] | + (Indicates inhibition greater than . . . 50%) | + (Indicates inhibition greater than . . . 50%) | – | – |
| CSC1OC(COCc2ccc3ccccc3c2)C(O)C(OCc2ccc3ccccc3c2)C1NC(=O)CCNC(=N)N (stereo not shown) [Compound 212] | + (Indicates inhibition greater than . . . 50%) | + (Indicates inhibition greater than . . . 50%) | – | – |

| Structure (SMILES) | MC4 inhibition at 10 micromolar (MC4; [1]) | SST5 inhibition at 10 micromolar (SST5) | MC4 inhibition at 10 micromolar (MC4; [2]) | SSTS inhibition at 10 micromolar (SST5) |
| --- | --- | --- | --- | --- |
| COCC1OC(OCc2ccccc2)C(NC(=O)CNC(=N)N)C(OCc2ccccc2)C1O (stereo not shown) [Compound 214] | – | – | + (Indicates inhibition greater than . . . 50%) | + (Indicates inhibition greater than . . . 50%) |
| COCC1OC(OCc2ccccc2)C(NC(=O)CCNC(=N)N)C(OCc2ccccc2)C1O (stereo not shown) [Compound 216] | – | – | + (Indicates inhibition greater than . . . 50%) | + (Indicates inhibition greater than . . . 50%) |
| COCC1OC(OCc2ccccc2)C(NC(=O)CCCNC(=N)N)C(OCc2ccccc2)C1O (stereo not shown) [Compound 218] | – | – | + (Indicates inhibition greater than . . . 50%) | + (Indicates inhibition greater than . . . 50%) |
| COCC1OC(OCc2ccccc2)C(NC(=O)CN)C(OCc2ccc(Cl)cc2)C1O (stereo not shown) [Compound 219] | – | – | + (Indicates inhibition greater than . . . 50%) | + (Indicates inhibition greater than . . . 50%) |
| COCC1OC(OCc2ccccc2)C(NC(=O)CNC(=N)N)C(OCc2ccc(Cl)cc2)C1O (stereo not shown) [Compound 220] | – | – | + (Indicates inhibition greater than . . . 50%) | + (Indicates inhibition greater than . . . 50%) |
| COCC1OC(OCc2ccccc2)C(NC(=O)CCN)C(OCc2ccc(Cl)cc2)C1O (stereo not shown) [Compound 221] | – | – | + (Indicates inhibition greater than . . . 50%) | + (Indicates inhibition greater than . . . 50%) |
| COCC1OC(OCc2ccccc2)C(NC(=O)CCNC(=N)N)C(OCc2ccc(Cl)cc2)C1O (stereo not shown) [Compound 222] | – | – | + (Indicates inhibition greater than . . . 50%) | + (Indicates inhibition greater than . . . 50%) |
| COCC1OC(OCc2ccccc2)C(NC(=O)CCCN)C(OCc2ccc(Cl)cc2)C1O (stereo not shown) [Compound 223] | – | – | + (Indicates inhibition greater than . . . 50%) | + (Indicates inhibition greater than . . . 50%) |
| COCC1OC(OCc2ccccc2)C(NC(=O)CCCNC(=N)N)C(OCc2ccc(Cl)cc2)C1O (stereo not shown) [Compound 224] | – | – | + (Indicates inhibition greater than . . . 50%) | + (Indicates inhibition greater than . . . 50%) |
| COCC1OC(OCc2ccccc2)C(NC(=O)CN)C(OCc2ccc(-c3ccccc3)cc2)C1O (stereo not shown) [Compound 225] | – | – | + (Indicates inhibition greater than . . . 50%) | + (Indicates inhibition greater than . . . 50%) |
| COCC1OC(OCc2ccccc2)C(NC(=O)CNC(=N)N)C(OCc2ccc(-c3ccccc3)cc2)C1O (stereo not shown) [Compound 226] | – | – | + (Indicates inhibition greater than . . . 50%) | + (Indicates inhibition greater than . . . 50%) |
| COCC1OC(OCc2ccccc2)C(NC(=O)CCN)C(OCc2ccc(-c3ccccc3)cc2)C1O (stereo not shown) [Compound 227] | – | – | + (Indicates inhibition greater than . . . 50%) | + (Indicates inhibition greater than . . . 50%) |
| COCC1OC(OCc2ccccc2)C(NC(=O)CCNC(=N)N)C(OCc2ccc(-c3ccccc3)cc2)C1O (stereo not shown) [Compound 228] | – | – | + (Indicates inhibition greater than . . . 50%) | + (Indicates inhibition greater than . . . 50%) |
| COCC1OC(OCc2ccccc2)C(NC(=O)CCCN)C(OCc2ccc(-c3ccccc3)cc2)C1O (stereo not shown) [Compound 229] | – | – | + (Indicates inhibition greater than . . . 50%) | + (Indicates inhibition greater than . . . 50%) |
| COCC1OC(OCc2ccccc2)C(NC(=O)CCCNC(=N)N)C(OCc2ccc(-c3ccccc3)cc2)C1O (stereo not shown) [Compound 230] | – | – | + (Indicates inhibition greater than . . . 50%) | + (Indicates inhibition greater than . . . 50%) |
| COCC1OC(OCc2ccccc2)C(NC(=O)CNC(=N)N)C(OCc2ccc3ccccc3c2)C1O (stereo not shown) [Compound 232] | – | – | + (Indicates inhibition greater than . . . 50%) | + (Indicates inhibition greater than . . . 50%) |
| COCC1OC(OCc2ccccc2)C(NC(=O)CCN)C(OCc2ccc3ccccc3c2)C1O (stereo not shown) [Compound 233] | – | – | + (Indicates inhibition greater than . . . 50%) | + (Indicates inhibition greater than . . . 50%) |
| COCC1OC(OCc2ccccc2)C(NC(=O)CCNC(=N)N)C(OCc2ccc3ccccc3c2)C1O (stereo not shown) [Compound 234] | – | – | + (Indicates inhibition greater than . . . 50%) | + (Indicates inhibition greater than . . . 50%) |
| COCC1OC(OCc2ccccc2)C(NC(=O)CCCN)C(OCc2ccc3ccccc3c2)C1O (stereo not shown) [Compound 235] | – | – | + (Indicates inhibition greater than . . . 50%) | + (Indicates inhibition greater than . . . 50%) |

Source: patent publication US7994140B2, “Classes of compounds that interact with GPCRs” (Alchemia Limited, priority 2002, dated 2011)
